Publication PMC10458470 (Molecules, 2023)
Read-outs that look alike come from different tables or passages of the source.

Key:
Assay in all cases: UV-Vis absorption titration (Kb) and fluorescence quenching (KSV […] ^-1)
Format in all cases: binding
[1] = target: T1, human serum albumin (HSA) (Homo sapiens, UniProt P02768); details: read-out: UV-Vis absorption titration (Kb) and fluorescence quenching (KSV 5.6 × 10^6 M^-1) (converted)
T1 construct: gene ALB

[2] = target: T1, human serum albumin (HSA); details: read-out: UV-Vis absorption titration (Kb) and fluorescence quenching (KSV 4.6 × 10^6 M^-1) (converted)
[3] = target: T1, human serum albumin (HSA); details: read-out: UV-Vis absorption titration (Kb) and fluorescence quenching (KSV 4 × 10^6 M^-1) (converted)

T1 sequence (P02768 25-609): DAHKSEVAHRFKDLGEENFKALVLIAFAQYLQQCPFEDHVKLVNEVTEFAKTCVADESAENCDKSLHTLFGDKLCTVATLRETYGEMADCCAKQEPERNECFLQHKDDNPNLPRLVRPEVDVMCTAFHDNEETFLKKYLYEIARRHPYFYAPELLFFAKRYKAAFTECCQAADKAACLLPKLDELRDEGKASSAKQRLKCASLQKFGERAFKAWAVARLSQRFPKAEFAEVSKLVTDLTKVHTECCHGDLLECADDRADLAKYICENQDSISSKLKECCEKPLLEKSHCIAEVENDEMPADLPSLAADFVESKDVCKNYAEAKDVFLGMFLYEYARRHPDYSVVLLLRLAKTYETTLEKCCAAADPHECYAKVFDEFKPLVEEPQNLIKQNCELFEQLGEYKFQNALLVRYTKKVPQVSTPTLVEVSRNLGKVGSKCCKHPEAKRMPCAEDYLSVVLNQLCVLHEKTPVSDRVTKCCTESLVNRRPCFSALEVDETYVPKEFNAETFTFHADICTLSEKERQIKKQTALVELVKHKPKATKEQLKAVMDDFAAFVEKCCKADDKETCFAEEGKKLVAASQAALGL

**Q.** Which Kd [1] does the source give for [Cu(NTZ)2Cl2] [NTZ-Cu(II)] here?
**A.** Its Kd is 5.35 µM.

**Q.** With [Ni(NTZ)2Cl2] [NTZ-Ni(II)] as the substance, how does the Kd [2] read?
**A.** The Kd was 20.9 µM.

**Q.** [Zn(NTZ)2Cl2] [NTZ-Zn(II)] was tested. Which Kd [3] did it give?
**A.** Its Kd is 13.4 µM.
